Measurements taken from patent US9375457B2, “Composition comprising Rhizoma coptidis, Cortex phellodendri and Fructus gardeniae and for treating neurodegenerative diseases” (Hong Kong Baptist University, priority 2013, dated 2016).

Experiments:
[1] = test system: Aβ plaques in TgCRND8 mice; experiment: Immunohistochemistry of Aβ plaque burden in TgCRND8 mice; type: in vivo; conditions: oral, 25 mg/kg per day, 3 months, 4G8 immunostaining, p<0.05
Description: All animal handling experiments were approved by the Hong Kong Baptist University Committee on the Use of Human and Animal Subjects in Teaching and Research (HASC, approval #: 12-13/0030). TgCRND8 mice expressing human APP with Swedish (K670N/M671L) and Indiana (V717F) mutations were used to evaluate the effect of baicalein on Aβ. Heterozygous TgCRND8 mice on a C57BL/6J background were used to breed a colony of experimental animals. […]
Immunohistochemistry and image analysis of Aβ plaques is performed on coronal brain sections from TgCRND8 mice treated with baicalein or tap water as described previously by Durairajan et al. 2012. […] Images are obtained with a Nikon fluorescent inverted microscope with digital Nikon camera and analyzed by Image J software. Aβ plaque burden is calculated as the area occupied by the Aβ plaques as a percentage of total area of the brain sections.

[2] = test system: Aβ1-40 and Aβ1-42 in brain of TgCRND8 mice; experiment: Aβ ELISA of serially extracted brain fractions of TgCRND8 mice; type: in vivo; conditions: oral, 25 mg/kg per day
Description: All animal handling experiments were approved by the Hong Kong Baptist University Committee on the Use of Human and Animal Subjects in Teaching and Research (HASC, approval #: 12-13/0030). TgCRND8 mice expressing human APP with Swedish (K670N/M671L) and Indiana (V717F) mutations were used to evaluate the effect of baicalein on Aβ. Heterozygous TgCRND8 mice on a C57BL/6J background were used to breed a colony of experimental animals. The TgCRND8 mouse is an early onset model of AD with visible Aβ deposits in the brains of the animals starting from 3 months of age as described in Chishti M A, Yang D S, Janus C, Phinney A L, Home P, Pearson J, Strome R, Zuker N, Loukides J, French J, Turner S, Lozza G, Grilli M, Kunicki S, Morissette C, Paquette J, Gervais F, Bergeron C, Fraser P E, Carlson G A, George-Hyslop P S, Westaway D. (2001) Early-onset amyloid deposition and cognitive deficits in transgenic mice expressing a double mutant form of amyloid precursor protein 695. J Biol Chem 276: 21562-21570. The animals are housed in a controlled environment under a 12/12 hours light/dark cycle. They are allowed free access to food and water. The oral administration of baicalein (25 mg/kg/d) is commenced at 2 months of age and ended at 5 months before being killed. A single dose (25 mg/kg/d) of baicalein is tested in animal study as no difference in baicalein levels in the brain between doses of 25 and 50 mg/kg/d is found in our pilot study. Control mice orally gavaged with tap water only for the same administration period. At the conclusion of the treatment period, mice were deeply anesthetized by chloral hydrate and perfused with phosphate buffered saline (PBS). The brains were then dissected and processed for Aβ immunostaining
To detect differences in the level of APP metabolic products among treatment groups, the levels of Aβ, F1-APP, pAPPThr668, CTFs, sAPPα and sAPPβ-sw are measured after a 3-step sequential extraction using Tris buffered saline (TBS) (pH 7.4), 1% Triton X-100/TBS (TBSX) and formic acid (FA) methods as described in Youmans K L, Leung S, Zhang J, Maus E, Baysac K, Bu G, Vassar R, Yu C, LaDu M J. (2011) Amyloid-β42 alters apolipoprotein E solubility in brains of mice with five familial AD mutations. J Neurosci Methods 196: 51-59. All extraction buffers also contained protease and phosphatase inhibitor cocktail (Roche Diagnostics, Basel, Switzerland). Snap frozen tissue is homogenized in 15 volumes (w/v) of TBS homogenization buffer and centrifuged at 100,000×g for 1 h at 4° C. using a Type 70 Ti rotor in an Optima™ L-80XP Ultracentrifuge (Beckman Coulter, Fla., USA). The TBS-soluble fraction is aliquoted, frozen in liquid nitrogen and stored at −80° C. The pellets are resuspended in 15 volumes of TBSX and kept on ice for 30 minutes, followed by a second centrifugation at 100,000×g for 1 hour at 4° C. The TBSX soluble fraction is aliquoted, frozen and stored as for the TBS fraction. The TBSX-insoluble pellet is resuspended in 2 mL of 70% FA and centrifuged at 100,000×g at 4° C. for 1 hour. The FA extracts are neutralized by the addition of 20 volumes of 1 M Tris pH 11, aliquoted and stored at −80° C. Total protein content in TBS- and TBSX-extracts is determined via BCA assay. […]
The levels of intracellular Aβ1-40 and Aβ1-42 are quantified by using a sandwich ELISA as previously described by Durairajan et al., 2011 with minor modification. Equal amounts of cell or brain lysates are used for Aβ quantification by sandwich ELISA. […]

O=c1cc(-c2ccccc2)oc2cc(O)c(O)c(O)c12 [baicalein]
increase of area occupied by Aβ deposits in cortex and hippocampus [1]: 44%
effect on TBS soluble Aβ levels in brain ([2]; TBS fraction): did not significantly affect
increase of Aβ1-40 in TBSX-soluble brain fraction ([2]; TBSX fraction): 35%
increase of Aβ1-42 in TBSX-soluble brain fraction ([2]; TBSX fraction): 65%
increase of Aβ1-40 in FA brain fraction ([2]; formic acid fraction): 80%
increase of Aβ1-42 in FA brain fraction ([2]; formic acid fraction): 32%
